In US12581252B2, “Substituted pyrrolo[3,4-b]pyridines as PI3K-α inhibitors” (Relay Therapeutics, Inc., priority 2020, dated 2026):

Molecular target: H1047R PIK3CA enzyme (Homo sapiens, UniProt P42336, H1047R)
Assay: ADP-Glo Biochemical PIK3CA Kinase Assay

Chain of H1047R PIK3CA enzyme (P42336 whole entry H1047R): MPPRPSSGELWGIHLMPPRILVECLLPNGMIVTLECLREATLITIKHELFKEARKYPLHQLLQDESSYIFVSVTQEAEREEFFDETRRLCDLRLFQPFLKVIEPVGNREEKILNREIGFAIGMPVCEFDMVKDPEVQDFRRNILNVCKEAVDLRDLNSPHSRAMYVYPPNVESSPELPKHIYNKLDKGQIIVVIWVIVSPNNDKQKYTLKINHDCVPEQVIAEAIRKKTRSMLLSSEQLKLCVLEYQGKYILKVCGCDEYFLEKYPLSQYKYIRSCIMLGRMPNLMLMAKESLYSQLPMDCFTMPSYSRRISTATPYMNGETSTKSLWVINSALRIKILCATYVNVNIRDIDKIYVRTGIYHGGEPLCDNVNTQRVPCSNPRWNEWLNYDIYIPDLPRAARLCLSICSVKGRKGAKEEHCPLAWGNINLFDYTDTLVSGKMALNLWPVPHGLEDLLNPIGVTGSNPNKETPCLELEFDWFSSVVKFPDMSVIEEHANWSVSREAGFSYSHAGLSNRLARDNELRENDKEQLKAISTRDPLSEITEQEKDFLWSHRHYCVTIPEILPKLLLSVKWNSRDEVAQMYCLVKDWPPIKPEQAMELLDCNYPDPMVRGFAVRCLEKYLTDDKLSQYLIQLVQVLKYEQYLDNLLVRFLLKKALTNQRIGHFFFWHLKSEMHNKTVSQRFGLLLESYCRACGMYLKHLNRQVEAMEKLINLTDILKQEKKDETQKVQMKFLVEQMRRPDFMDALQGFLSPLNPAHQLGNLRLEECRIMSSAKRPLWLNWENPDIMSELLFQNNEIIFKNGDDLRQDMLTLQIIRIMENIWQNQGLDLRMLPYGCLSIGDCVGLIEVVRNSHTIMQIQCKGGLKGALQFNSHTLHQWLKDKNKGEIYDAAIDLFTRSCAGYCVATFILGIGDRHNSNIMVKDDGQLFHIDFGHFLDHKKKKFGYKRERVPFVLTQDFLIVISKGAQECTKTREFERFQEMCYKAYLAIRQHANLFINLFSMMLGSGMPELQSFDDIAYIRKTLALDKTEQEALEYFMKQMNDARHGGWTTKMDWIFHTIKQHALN
Chain of H1047R PIK3CA enzyme (P27986 whole entry partner): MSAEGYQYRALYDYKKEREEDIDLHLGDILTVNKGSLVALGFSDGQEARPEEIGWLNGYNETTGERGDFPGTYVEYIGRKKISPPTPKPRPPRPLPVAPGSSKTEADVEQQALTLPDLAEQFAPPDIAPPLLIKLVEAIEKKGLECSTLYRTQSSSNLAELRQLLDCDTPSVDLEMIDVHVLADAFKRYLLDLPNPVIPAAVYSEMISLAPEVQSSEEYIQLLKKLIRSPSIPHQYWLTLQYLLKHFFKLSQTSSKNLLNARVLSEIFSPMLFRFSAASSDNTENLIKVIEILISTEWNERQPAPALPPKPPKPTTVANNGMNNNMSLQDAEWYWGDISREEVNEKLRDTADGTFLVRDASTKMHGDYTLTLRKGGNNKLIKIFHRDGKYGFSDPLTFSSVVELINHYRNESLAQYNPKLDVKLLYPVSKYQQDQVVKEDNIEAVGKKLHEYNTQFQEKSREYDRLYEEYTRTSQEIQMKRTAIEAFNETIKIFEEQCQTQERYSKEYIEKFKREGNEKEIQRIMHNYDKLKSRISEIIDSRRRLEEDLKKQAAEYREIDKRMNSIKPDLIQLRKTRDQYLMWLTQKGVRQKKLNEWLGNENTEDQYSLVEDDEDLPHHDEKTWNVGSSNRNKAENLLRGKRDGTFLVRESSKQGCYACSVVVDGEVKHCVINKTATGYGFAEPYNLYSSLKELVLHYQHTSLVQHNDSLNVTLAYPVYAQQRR

| IC50 | Compound |
| --- | --- |
| 500 to 1000 nM | Cc1ncc(-c2cc(NC(=O)c3cc(F)cc(C(F)(F)F)c3)c3c(n2)C(=O)N[C@@H]3c2cc(F)ccc2Cl)cn1 [Compound I-652] |
| 10000 to 100000 nM | O=C(Nc1cc(-c2ccc3ncnn3c2)cc2c1[C@@H](c1cc(F)ccc1Cl)NC2=O)c1cc(F)cc(OC(F)F)c1 (stereo in doubt) [Compound I-1170] |
| 100 to 500 nM | O=C(Nc1cc(Oc2ncccn2)cc2c1C(c1cc(F)ccc1Cl)NC2=O)c1cc(F)cc(C(F)(F)F)c1 (stereo not drawn) [Compound I-1202] |
| 10000 to 100000 nM | Cc1ccccc1C1NC(=O)c2cccc(-c3nnc(-c4ccccc4)[nH]3)c21 (stereo not drawn) [Compound I-398] |
| 100 to 500 nM | O=C(Nc1cc(Br)cc2c1C(c1cc(F)ccc1Cl)NC2=O)c1cc(F)cc2c1NC(=O)C2(F)F (stereo not drawn) [Compound I-1381] |
| 10000 to 100000 nM | O=C(Cn1ncc2ccccc21)Nc1cc(Br)cc2c1C(c1cc(F)ccc1Cl)NC2=O (stereo not drawn) [Compound I-633] |
| 500 to 1000 nM | Nc1nn(C(=O)Nc2cccc3c2C(c2cc(F)ccc2Cl)NC3=O)c2ccc(F)cc12 (stereo not drawn) [Compound I-2431] |
| 1000 to 10000 nM | O=C1N[C@H](c2cc(F)ccc2Cl)c2c(NC(=O)c3nsc4ccccc34)cc(-c3ccc4ncnn4c3)cc21 (stereo in doubt) [Compound I-1830] |
| ≤ 100 nM | Cn1cc(-c2cc(NC(=O)c3cc(F)cc(C(F)(F)F)c3)c3c(n2)C(=O)N[C@H]3c2cc(F)ccc2Cl)cn1 [Compound I-187] |
| 1000 to 10000 nM | O=C1NC(c2cc(F)ccc2Cl)c2c(NC(=O)C3CCCC(F)C3)cc(-c3ccc4ncnn4c3)cc21 (stereo not drawn) [Compound I-1957] |
| ≤ 100 nM | CN(C)S(=O)(=O)n1nccc1-c1cc(NC(=O)c2cc(F)cc(C(F)(F)F)c2)c2c(c1)C(=O)N[C@H]2c1cc(F)ccc1Cl [Compound I-1599] |
| 100 to 500 nM | Cc1ccccc1C1NC(=O)c2nccc(NC(=O)N3CCc4ccccc43)c21 (stereo not drawn) [Compound I-147, N-(7-oxo-5-(o-tolyl)-6,7-dihydro-5H-pyrrolo[3,4-b]pyridin-4-yl)indoline-1-carboxamide] |
| ≤ 100 nM | O=C(Nc1cc(-c2ccn3nccc3c2)cc2c1C(c1cc(F)ccc1Cl)NC2=O)c1cc(F)cc(C(F)(F)F)c1 (stereo not drawn) [Compound I-1669] |
| ≤ 100 nM | O=C(Nc1cc(CS(=O)(=O)c2cccnc2)cc2c1C(c1cc(F)ccc1Cl)NC2=O)c1cc(F)cc(C(F)(F)F)c1 (stereo not drawn) [Compound I-1536] |
| 1000 to 10000 nM | Cc1ccccc1C1NC(=O)c2cccc(NC(=O)c3nsc4ccc(-c5ccccc5)cc34)c21 (stereo not drawn) [Compound I-378] |
| 100 to 500 nM | N#Cc1cnc2ccc(-c3cc(NC(=O)c4cc(F)cc(C(F)(F)F)c4)c4c(c3)C(=O)N[C@@H]4c3cc(F)ccc3Cl)cn12 [Compound I-1442] |
| ≤ 100 nM | CN(C)S(=O)(=O)n1cc(-c2cc(NC(=O)c3cc(F)cc(C(F)(F)F)c3)c3c(c2)C(=O)NC3c2cc(F)ccc2Cl)cn1 (stereo not drawn) [Compound I-1592] |
| 10000 to 100000 nM | O=C(CC1CCC(O)CC1)Nc1cc(-c2ccc3ncnn3c2)cc2c1C(c1cc(F)ccc1Cl)NC2=O (stereo not drawn) [Compound I-1913] |
| 500 to 1000 nM | N#CCc1cc(NC(=O)N2C[C@](O)(C(F)(F)F)c3ccccc32)c2c(c1)C(=O)N[C@H]2c1cc(F)ccc1Cl (single isomer, unassigned) [Compound I-2604] |
| 1000 to 10000 nM | Cc1ccccc1C1NC(=O)c2cccc(NC3(c4cc(F)cc(C(F)(F)F)c4)COC3)c21 (stereo not drawn) [Compound I-492] |
| 500 to 1000 nM | O=C(Nc1cc(C2=CN3CCN=C3C=C2)cc2c1[C@@H](c1cc(F)ccc1Cl)NC2=O)c1cc(F)cc(C(F)(F)F)c1 [Compound I-2091] |

| IC50 | Compound |
| --- | --- |
| ≤ 100 nM | O=C(Nc1cc(-c2cncc3ccccc23)cc2c1C(c1cc(F)ccc1Cl)NC2=O)c1cc(F)cc(C(F)(F)F)c1 (stereo not drawn) [Compound I-852] |
| 10000 to 100000 nM | Cn1ncc2c(C(=O)Nc3cccc4c3C(c3cc(F)ccc3Cl)NC4=O)cc(F)cc21 (stereo not drawn) [Compound I-871] |
| 10000 to 100000 nM | CC(=O)N[C@H]1CC[C@H](C(=O)Nc2cc(-c3ccc4ncnn4c3)cc3c2C(c2cc(F)ccc2Cl)NC3=O)CC1 (mixture of isomers) [Compound I-1850] |
| ≤ 100 nM | CN1C(=O)CC[C@@H]1COc1cc(NC(=O)c2cc(F)cc(C(F)(F)F)c2)c2c(c1)C(=O)N[C@H]2c1cc(F)ccc1Cl (single isomer, unassigned) [Compound I-1567] |
| 1000 to 10000 nM | O=C1NC(c2cc(F)ccc2Cl)c2c(NC(=O)C3CCC(C(F)(F)F)CC3)cc(Br)cc21 (stereo not drawn) [Compound I-1324] |
| 100 to 500 nM | Cc1ccccc1C1NC(=O)c2cccc(NC(=O)N3CC(C)c4ccccc43)c21 (stereo not drawn) [Compound I-95] |
| 10000 to 100000 nM | N#CCC(=O)Nc1cc(-c2ccc3ncnn3c2)cc2c1C(c1cc(F)ccc1Cl)NC2=O (stereo not drawn) [Compound I-2000] |
| 10000 to 100000 nM | Nc1cc(C2NC(=O)c3cccc(NC(=O)c4cc(F)cc(C(F)(F)F)c4)c32)ccn1 (stereo not drawn) [Compound I-828] |
| 1000 to 10000 nM | N#CCc1ccc(NC(=O)N2C[C@](O)(C(F)(F)F)c3cc(F)ccc32)c2c1C(=O)N[C@@H]2c1cc(F)ccc1Cl (single isomer, unassigned) [Compound I-2615] |
| 1000 to 10000 nM | Cn1nc(C(F)F)cc1-c1cc(NC(=O)c2cc(F)cc(C(F)(F)F)c2)c2c(c1)C(=O)N[C@@H]2c1cc(F)ccc1Cl [Compound I-1879] |
| 10000 to 100000 nM | Cc1ccccc1[C@@H]1NC(=O)c2cccc(NC(=O)c3csc4c(F)cccc34)c21 [Compound I-37] |
| ≤ 100 nM | O=C(Nc1cc(-c2ccc3nc(Cl)nn3c2)cc2c1C(c1cc(F)ccc1Cl)NC2=O)c1cc(F)cc(C(F)(F)F)c1 (stereo not drawn) [Compound I-1573] |
| 10000 to 100000 nM | O=C1NC(c2cc(F)ccc2Cl)c2c(NC(=O)N3CC[C@H](F)[C@@H](F)C3)cc(Br)cc21 (mixture of isomers) [Compound I-720] |
| ≤ 100 nM | O=C(Nc1cc(N2CCCc3ncccc32)cc2c1C(c1cc(F)ccc1Cl)NC2=O)c1cc(F)cc(C(F)(F)F)c1 (stereo not drawn) [Compound I-1227] |
| 10000 to 100000 nM | O=C1NC(c2cc(F)ccc2Cl)c2c(NC(=O)C3CCOCC3)cc(-c3ccc4ncnn4c3)cc21 (stereo not drawn) [Compound I-1821] |
| 500 to 1000 nM | O=C1N[C@@H](c2cc(F)ccc2Cl)c2c(NC(=O)N3C[C@H](O)c4cc(F)ccc43)cccc21 (single isomer, unassigned) [Compound I-2126] |
| ≤ 100 nM | O=C(Nc1cc(-n2cncc2F)cc2c1C(c1cc(F)ccc1Cl)NC2=O)c1cc(F)cc(C(F)(F)F)c1 (stereo not drawn) [Compound I-1128] |
| 10000 to 100000 nM | CN(C)S(=O)(=O)c1cc(-c2ccc3ncnn3c2)cc2c1[C@@H](c1cc(F)ccc1Cl)NC2=O [Compound I-2098] |
| ≤ 100 nM | O=C(Nc1cc(-c2cn3ncnc3cc2F)cc2c1C(c1cc(F)ccc1Cl)NC2=O)c1cc(F)cc(C(F)(F)F)c1 (stereo not drawn) [Compound I-1652] |
| 500 to 1000 nM | CNc1cc(NC(=O)N2C[C@@](O)(C(F)(F)F)c3cc(F)ccc32)c2c(n1)C(=O)N[C@H]2c1cc(F)ccc1Cl (single isomer, unassigned) [Compound I-2646] |
| 10000 to 100000 nM | CCC1CCN(C(=O)Nc2cccc3c2C(c2cc(F)ccc2Cl)NC3=O)C1 (stereo not drawn) [Compound I-2420] |

| IC50 | Compound |
| --- | --- |
| 100 to 500 nM | O=C(Nc1cc(Br)cc2c1C(c1cc(F)ccc1Cl)NC2=O)c1cccc(C(F)(F)F)c1 (stereo not drawn) [Compound I-801] |
| 10000 to 100000 nM | CC(=O)N1CCCC(C2NC(=O)c3cccc(NC(=O)c4cc(F)cc(C(F)(F)F)c4)c32)C1 (racemic) [Compound I-1771] |
| ≤ 100 nM | Cn1cnc2ccc(-c3cc(NC(=O)c4cc(F)cc(C(F)(F)F)c4)c4c(c3)C(=O)NC4c3cc(F)ccc3Cl)cc21 (stereo not drawn) [Compound I-1027] |
| 1000 to 10000 nM | O=C(Nc1cc(Br)cc2c1[C@@H](c1cc(F)ccc1C(F)F)NC2=O)c1cc(F)cc(C(F)(F)F)c1 [Compound I-798] |
| 10000 to 100000 nM | CC(C)(CC(=O)Nc1cc(Br)cc2c1C(c1cc(F)ccc1Cl)NC2=O)C(F)(F)F (stereo not drawn) [Compound I-1757] |
| ≤ 100 nM | N#CCCn1cc(-c2cc(NC(=O)c3cc(F)cc(C(F)(F)F)c3)c3c(c2)C(=O)NC3c2cc(F)ccc2Cl)cn1 (stereo not drawn) [Compound I-1397] |
| 100 to 500 nM | O=C1NC(c2cc(F)ccc2Cl)c2c(NC(=O)N3CC4(CC4)c4ccccc43)cc(Br)cc21 (stereo not drawn) [Compound I-1462] |
| ≤ 100 nM | O=C(Nc1cc(-c2ccn3nccc3n2)cc2c1C(c1cc(F)ccc1Cl)NC2=O)c1cc(F)cc(C(F)(F)F)c1 (stereo not drawn) [Compound I-1763] |
| 1000 to 10000 nM | O=C1N[C@@H](c2cc(F)ccc2Cl)c2c(NC(=O)N3C[C@@](O)(C(F)F)c4cc(F)ccc43)cc(Cl)cc21 (single isomer, unassigned) [Compound I-2588] |
| 10000 to 100000 nM | Cc1ccccc1[C@H]1NC(=O)c2nccc(NC(=O)N3CCc4c(F)cc(F)cc43)c21 [Compound I-230] |
| ≤ 100 nM | Cc1ccccc1C1NC(=O)c2cc(-c3cnn(C)c3)cc(NC(=O)c3csc4ccccc34)c21 (stereo not drawn) [Compound I-115, N-[6-(1-methyl-1H-pyrazol-4-yl)-3-(2-methylphenyl)-1-oxo-2,3-dihydro-1H-isoindol-4-yl]-1-benzothiophene-3-carboxamide] |
| 1000 to 10000 nM | O=C(Nc1cc(Br)cc2c1C(c1cc(F)ccc1Cl)NC2=O)c1cc(Cl)ccc1Cl (stereo not drawn) [Compound I-795] |
| 100 to 500 nM | Cc1ncc(-c2cc(NC(=O)c3cc(F)cc(C(F)(F)F)c3)c3c(c2)C(=O)NC3c2cc(F)ccc2Cl)c(C)n1 (stereo not drawn) [Compound I-1092] |
| ≤ 100 nM | N#Cc1cc(-c2cc(NC(=O)c3cc(F)cc(C(F)(F)F)c3)c3c(c2)C(=O)N[C@H]3c2cc(F)ccc2Cl)cn2ncnc12 [Compound I-1882] |
| ≤ 100 nM | Cc1ncc(-c2cc(NC(=O)c3cc(F)cc(C(F)(F)F)c3)c3c(c2)C(=O)NC3c2cc(F)ccc2Cl)cn1 (stereo not drawn) [Compound I-732] |
| 500 to 1000 nM | Cc1ccccc1C1NC(=O)c2cccc(NC(=O)c3cc(F)n4ccccc34)c21 (stereo not drawn) [Compound I-316] |
| 1000 to 10000 nM | O=C(Nc1cc(-c2cscn2)cc2c1[C@@H](c1cc(F)ccc1Cl)NC2=O)c1cc(F)cc(C(F)(F)F)c1 [Compound I-1085] |
| 1000 to 10000 nM | Cc1ccccc1C1NC(=O)c2cc(Br)cc(NC(=O)c3cc(F)cc(C4CC4)c3)c21 (stereo not drawn) [Compound I-534] |
| ≤ 100 nM | O=C(Nc1cc(Br)cc2c1C(c1cc(F)ccc1C(F)F)NC2=O)c1cc(F)cc(C(F)(F)F)c1 (stereo not drawn) [Compound I-206] |
| 1000 to 10000 nM | Cc1ccccc1C1NCc2cccc(NC(=O)c3nsc4ccccc34)c21 (stereo not drawn) [Compound I-201] |

| Compound | IC50 |
| --- | --- |
| O=C(Nc1cc(-c2cnn(-c3ncccn3)c2)cc2c1C(c1cc(F)ccc1Cl)NC2=O)c1cc(F)cc(C(F)(F)F)c1 (single isomer, unassigned) [Compound I-1555] | ≤ 100 nM |
